From patent US20230150981A1, “N-HETEROARYLALKYL-2-(HETEROCYCLYL AND HETEROCYCLYLMETHYL) ACETAMIDE DERIVATIVES AS SSTR4 AGONISTS” (Takeda Pharmaceutical Compnay Limited, priority 2020, published 2023)

Target: T1, SSTR4 (Homo sapiens, UniProt P31391)
T1 construct: host or cells: CHO-K1
Test: Inhibition of forskolin stimulated cAMP in CHO-K1 cells overexpressing SSTR4
Assay type: cell-based
Details: read-out: SSTR4 Activity pEC50 (converted)
Procedure: Inhibition of Forskolin Stimulated cAMP in Cells Overexpressing SSTR4
This cell-based assay measures the ability of compounds to inhibit forskolin stimulated cAMP in CHO-K1 cells overexpressing SSTR4. CHO-K1 cells overexpressing SSTR4 (CHO-SSTR4) are purchased from DiscoveRx (product code 95-0059C2). The CHO-SSTR4 cells are maintained in F12K media with 10% Fetal Bovine Serum (Hyclone), 1% Pen/Strep (Life Technologies), and 800 μg/mL G418 (Life Technologies). To perform the assay, 3000 cells are plated per well in white 384-well plate (Corning 3570) in 50 μL complete media and the cells are allowed to attach for 16 hours in a 37° C., 5% CO2 incubator. The next day, the culture media is removed from the cells and the cells are washed (added then removed) with Krebs Ringer Buffer (ZenBio, KRB-1000 mL). Test compounds are suspended in DMSO and diluted in stimulation buffer: Krebs Ringer Buffer plus 0.5% BSA (Roche), 300 μM IBMX (Sigma), and 350 nM forskolin (Sigma). The cells are incubated in 10 μL compound/stimulation buffer for 30 minutes at room temperature. Cellular cAMP levels are detected with a HTRF LANCE Ultra cAMP kit (Perkin Elmer, catalog number TRF0264).
The assay is performed in accordance with the manufacturer's instructions. Five μL of diluted Eu-W8044 labeled streptavidin (dilution: 1:50 in cAMP Detection Buffer) is added to each well. Then 5 μL of diluted biotin cAMP (dilution: 1:150 in cAMP Detection Buffer) is added to each well. The plates are covered and allowed to incubate for 60 minutes at room temperature on a shaker. HTRF (665 nm/615 nm) is read on a Perkin Elmer ENVISION plate reader. The pEC50 values are generated using Activity Base for Screening Data Management.

T1 sequence (P31391 whole entry): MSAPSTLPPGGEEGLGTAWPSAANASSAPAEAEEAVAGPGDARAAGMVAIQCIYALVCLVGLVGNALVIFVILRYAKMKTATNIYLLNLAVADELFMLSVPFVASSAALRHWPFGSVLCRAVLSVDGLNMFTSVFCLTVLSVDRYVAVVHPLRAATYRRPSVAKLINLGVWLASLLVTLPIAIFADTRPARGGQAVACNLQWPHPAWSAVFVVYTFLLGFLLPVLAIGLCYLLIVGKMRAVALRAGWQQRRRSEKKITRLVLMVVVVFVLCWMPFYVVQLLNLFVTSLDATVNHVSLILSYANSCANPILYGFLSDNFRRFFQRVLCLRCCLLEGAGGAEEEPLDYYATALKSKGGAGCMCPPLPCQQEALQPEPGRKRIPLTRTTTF

| Compound | EC50 |
| --- | --- |
| Cc1cccnc1OCC(C)(C)NC(=O)[C@H](C)[C@@H]1CCCN1C (racemic) [Example 66, (R)-N-(2-methyl-1-((3-methylpyridin-2-yl)oxy)propan-2-yl)-2-((S)-1-methylpyrrolidin-2-yl)propanamide and (S)-N-(2-methyl-1-((3-methylpyridin-2-yl)oxy)propan-2-yl)-2-((R)-1-methylpyrrolidin-2-yl)propanamide] | 15.8 nM |
| Cc1cccnc1OCC(C)(C)NC(=O)[C@@H](C)[C@@H]1CCCN1C (racemic) [Example 67, (S)-N-(2-methyl-1-((3-methylpyridin-2-yl)oxy)propan-2-yl)-2-((S)-1-methylpyrrolidin-2-yl)propanamide and (R)-N-(2-methyl-1-((3-methylpyridin-2-yl)oxy)propan-2-yl)-2-((R)-1-methylpyrrolidin-2-yl)propanamide] | 1.58 nM |
| COc1ccccc1C(C)(C)NC(=O)[C@@H](C)CN1CCCC1 (single isomer, unassigned) [Example 76] | 631 nM |
| Cc1cccnc1OCC1(NC(=O)[C@@H](C)[C@H]2CCCN2C)CC1 (single isomer, unassigned) [Example 126] | 398 nM |
| CN1CCC[C@H]1CC(=O)NC(C)(C)[C@H]1CCc2ccccc2O1 (single isomer, unassigned) [Example 129] | 398 nM |
| CN1CCC[C@@H]1CC(=O)NC(C)(C)[C@H]1CCc2ccccc2O1 (single isomer, unassigned) [Example 130] | 316 nM |
| C[C@H](CN1CCC1)C(=O)NC(C)(C)c1ccccc1Cl (single isomer, unassigned) [Example 133] | 200 nM |
| C[C@@H](CN1CCCC1)C(=O)NC(C)(C)c1ccccc1Cl (single isomer, unassigned) [Example 137] | 316 nM |
| COc1ccc(C(C)(C)NC(=O)[C@@H](C)CN2CCC2)cc1 (single isomer, unassigned) [Example 139] | 1260 nM |
| Cc1ccccc1C(C)(C)NC(=O)[C@@H](C)CN1CCC1 (single isomer, unassigned) [Example 141] | 398 nM |
| Cc1c(F)cccc1C(C)(C)NC(=O)[C@@H](C)CN1CCC1 (single isomer, unassigned) [Example 143] | 200 nM |
| Cc1cccc(C(C)(C)NC(=O)[C@H](C)CN2CCC2)c1Cl (single isomer, unassigned) [Example 144] | 100 nM |
| Cc1ccc(C(C)(C)NC(=O)[C@H](C)CN2CCC2)cc1 (single isomer, unassigned) [Example 148] | 501 nM |
| C[C@H](CN1CCC1)C(=O)NC(C)(C)c1cccc(F)c1 (single isomer, unassigned) [Example 152] | 1000 nM |
| C[C@H](CN1CCC1)C(=O)NC(C)(C)c1ccc(Cl)cc1 (single isomer, unassigned) [Example 154] | 1260 nM |
| C[C@@H](CN1CCC1)C(=O)NC(C)(C)c1ccccc1F (single isomer, unassigned) [Example 157] | 2510 nM |
| O=C(CCN1CCC1)N[C@@H](c1cc(F)ccc1F)C(F)F (single isomer, unassigned) [Example 168] | > 5010 nM |
| COc1c(F)cccc1C(C)(C)NC(=O)[C@@H](C)CN1CCC1 (single isomer, unassigned) [Example 172] | 251 nM |
| Cc1ccc([C@@H](CF)NC(=O)CCN2CCC2)cc1 (single isomer, unassigned) [Example 174] | > 10000 nM |

| Compound | EC50 |
| --- | --- |
| Cc1cccnc1OCC1(NC(=O)[C@@H](C)[C@@H]2CCCN2C)CC1 (single isomer, unassigned) [Example 176] | 126 nM |
| Cc1cccnc1OCC1(NC(=O)[C@H](C)[C@H]2CCCN2C)CC1 (single isomer, unassigned) [Example 177] | > 10000 nM |
| CC[C@@H](CN1CCC1)C(=O)NC(C)(C)c1cccc(F)c1 (single isomer, unassigned) [Example 185] | 79.4 nM |
| CC[C@H](CN1CCC1)C(=O)NC(C)(C)c1ccc(C)cc1 (single isomer, unassigned) [Example 186] | 200 nM |
| O=C(CCN1CCCC1)N[C@@H](c1cccc(Cl)c1)C(F)F (single isomer, unassigned) [Example 197] | 2000 nM |
| CC[C@H](CN1CCC1)C(=O)NC(C)(C)c1ccccc1F (single isomer, unassigned) [Example 199] | > 10000 nM |
| C[C@@H](CN1CCC1)C(=O)N[C@@H](CF)c1ccccc1 (single isomer, unassigned) [Example 206] | 200 nM |
| Cn1nc(C(C)(C)NC(=O)CC23CCCN2CCC3)c2ccccc21 [Example 10, N-(2-(1-methyl-1H-indazol-3-yl)propan-2-yl)-2-(tetrahydro-1H-pyrrolizin-7a(5H)-yl)acetamide] | 200 nM |
| CN1CCCC1CC(=O)NC(C)(C)c1cccc(Cl)c1 (centres unmarked) [Example 12, N-(2-(3-chlorophenyl)propan-2-yl)-2-(1-methylpyrrolidin-2-yl)acetamide] | 126 nM |
| CN1Cc2ccccc2C[C@H]1CC(=O)NC(C)(C)c1nccc2ccccc12 [Example 20, (S)-N-(2-(isoquinolin-1-yl)propan-2-yl)-2-(2-methyl-1,2,3,4-tetrahydroisoquinolin-3-yl)acetamide] | 2000 nM |
| CN1CCCC1CC(=O)NC(C)(C)c1nccc2occc12 (centres unmarked) [Example 25, N-(2-(furo[3,2-c]pyridin-4-yl)propan-2-yl)-2-(1-methylpyrrolidin-2-yl)acetamide] | 79.4 nM |
| CN1CCCCC1CC(=O)NC(C)(C)c1nccc2c1cnn2C (centres unmarked) [Example 26, N-(2-(1-methyl-1H-pyrazolo[4,3-c]pyridin-4-yl)propan-2-yl)-2-(1-methylpiperidin-2-yl)acetamide] | 2510 nM |
| CN1CCCCC1CC(=O)NC(C)(C)COc1ncccc1C(F)(F)F (centres unmarked) [Example 29, N-(2-methyl-1-((3-(trifluoromethyl)pyridin-2-yl)oxy)propan-2-yl)-2-(1-methylpiperidin-2-yl)acetamide] | 100 nM |
| C[C@H](NC(=O)C[C@@H]1CCCN1C)c1ccc(Cl)cc1 [Example 31, N-((S)-1-(4-chlorophenyl)ethyl)-2-((S)-1-methylpyrrolidin-2-yl)acetamide] | 316 nM |
| C[C@H](NC(=O)C[C@@H]1CCCN1C)c1ccc(F)cc1 [Example 32, N-((S)-1-(4-fluorophenyl)ethyl)-2-((S)-1-methylpyrrolidin-2-yl)acetamide] | 501 nM |
| CN1CCC[C@H]1CC(=O)NC(C)(C)c1cc(Cl)ccc1Cl [Example 33, (S)-N-(2-(2,5-dichlorophenyl)propan-2-yl)-2-(1-methylpyrrolidin-2-yl)acetamide] | 79.4 nM |
| C[C@H](NC(=O)C[C@H]1CCCN1C)c1ccc(Cl)cc1 [Example 36, N-((S)-1-(4-chlorophenyl)ethyl)-2-((R)-1-methylpyrrolidin-2-yl)acetamide] | 501 nM |
| C[C@H](NC(=O)C[C@H]1CCCN1C)c1ccc(F)cc1 [Example 37, N-((S)-1-(4-fluorophenyl)ethyl)-2-((R)-1-methylpyrrolidin-2-yl)acetamide] | 1000 nM |
| CCN1CCC[C@H]1CC(=O)NC(C)(C)COc1ncccc1C(F)(F)F [Example 51, (S)-2-(1-ethylpyrrolidin-2-yl)-N-(2-methyl-1-((3-(trifluoromethyl)pyridin-2-yl)oxy)propan-2-yl)acetamide] | 126 nM |
